Measured values: patent US4224329A, “2-Substitute d-trans-5-aryl-2,3,4,4a,5,9b-hexahydro-1H-pyrido[4,3-b]indoles” (Pfizer Inc., priority 1979, dated 1980)
Where a name gives a salt, the structure may show the parent alone. Read-outs that look alike come from different tables or passages of the source.

Columns and labels:
Amphetamine Stereotypy = test: Antagonism of Amphetamine Stereotypy in Rats (ED50 for blocking characteristic amphetamine cage movement); format: in vivo; conditions: for ED50: Rattus norvegicus; for ED50, 5 Hrs. / ED50, 24 Hrs. / ED50, 48 Hrs. / ED50, 72 Hrs. / ED50, 1 Hr.: hydrochloride; for ED50, 5 Hrs.: 300 min; for ED50, 24 Hrs.: 1440 min; for ED50, 48 Hrs.: 2880 min; for ED50, 72 Hrs.: 4320 min; for ED50, 1 Hr.: 60 min
Method: The effects of the compounds of the present invention on prominent amphetamine-induced symptoms were studied in rats by a rating scale modeled after the one reported by Quinton and Halliwell, and Weissman. Groups of five rats were placed in a covered plastic cage measuring approximately 26 cm.×42 cm.×16 cm. […] They were then treated 1, 5 and 24 hrs. later with d-amphetamine sulfate, 5 mg./kg. intraperitoneally (i.p.). […] On the basis of dose-response data after amphetamine it was possible to determine the effective dose of the compound necessary to antagonize or block the characteristic amphetamine behavior of cage movement for fifty percent of the rats tested (ED50). The time of rating chosen coincides with the peak action of amphetamine which is 60-80 min. after treatment with this agent.
Employing the above-described procedure, the following 4a,9b-trans compounds were tested for their ability to block the behavior effects of amphetamine, the results being reported as the ED50 in mg./kg. at the indicated times: [drawing 30]
A. The following results were obtained on the mixture of diastereomers for those compounds wherein R contains a secondary alcohol group and on the single diastereomer of the other 4a, 9b-trans hexahydro-pyrido-indoles.
B. The results of tests in which compounds of the invention reported in Part A, above are compared with the corresponding δ-substituted-5-aryl-1,2,3,4-tetrahydropyrido[4,3-b]indoles of U.S. Pat. No. 4,001,263 are summarized below. For each pair the results obtained on the prior art compound (a) are given first and the results for the compound of the invention (b) are given second. Where indicated the test compound was also administered orally (p.o.) and tests were carried out for 48 hours.
C. […] In each case the compounds are of the formula
The tests were carried out for 72 hours.

dopamine receptors = dopamine receptors (Rattus norvegicus, UniProt P61169); test: Inhibition of 3H-Spiroperidol Binding to Dopamine Receptors (rat corpus striatum); design: species or system rats (Sprague-Dawley CD males); conditions: 0.5 nM 3H-spiroperidol, 10 minutes at 37° C.
[1] = ip, 1 h, i.p., Part B, read-out: ED50, 1 Hr.
[2] = ip, 5 h, i.p., Part B, read-out: ED50, 5 Hrs.
[3] = ip, 24 h, i.p., Part B, read-out: ED50, 24 Hrs.
[4] = po, 1 h, p.o., Part B, read-out: ED50, 1 Hr.
[5] = po, 5 h, p.o., Part B, read-out: ED50, 5 Hrs.
[6] = po, 24 h, p.o., Part B, read-out: ED50, 24 Hrs.
[7] = sc, 1 h, s.c., Part A, read-out: ED50, 1 Hr.
[8] = sc, 5 h, s.c., Part A, read-out: ED50, 5 Hr.
[9] = sc, 24 h, s.c., Part A, read-out: ED50, 24 Hrs.
[10] = s.c., Part C, isomers of Examples 13 and 14
[11] = s.c., Part D, enantiomers by synthesis of Example 21

Sequence of dopamine receptors (P61169 whole entry): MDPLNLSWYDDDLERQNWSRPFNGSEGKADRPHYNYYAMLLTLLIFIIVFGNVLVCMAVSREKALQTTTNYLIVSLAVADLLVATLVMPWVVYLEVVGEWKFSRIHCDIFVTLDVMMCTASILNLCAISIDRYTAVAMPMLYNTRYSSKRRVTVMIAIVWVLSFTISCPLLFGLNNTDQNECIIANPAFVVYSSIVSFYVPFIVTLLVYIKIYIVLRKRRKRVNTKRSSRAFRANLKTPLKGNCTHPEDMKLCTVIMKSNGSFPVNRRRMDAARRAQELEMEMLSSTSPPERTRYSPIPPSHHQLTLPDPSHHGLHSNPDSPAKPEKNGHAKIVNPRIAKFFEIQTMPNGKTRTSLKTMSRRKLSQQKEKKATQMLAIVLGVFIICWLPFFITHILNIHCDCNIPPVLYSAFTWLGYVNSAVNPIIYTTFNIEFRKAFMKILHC

`OC(CCCN1CC[C@@H]2[C@@H](C1)c1cc(F)ccc1N2c1ccccc1F)c1ccc(F)cc1` (relative stereo) [trans-8-fluoro-5-(o-fluorophenyl)-2-[4-hydroxy-4-(p-fluorophenyl)butyl]-2,3,4,4a,5,9b-hexahydro-1H-pyrido[4,3-b]indole] was tested, and the ED50 (Amphetamine Stereotypy; [1]) was 0.1 to 0.32 mg/kg, the ED50 (Amphetamine Stereotypy; [2]) was roughly 0.1 mg/kg and the ED50 (Amphetamine Stereotypy; [3]) was roughly 0.1 mg/kg. The ED50 (Amphetamine Stereotypy; [4]) was less than 1 mg/kg, the ED50 (Amphetamine Stereotypy; [5]) was less than 1 mg/kg and the ED50 (Amphetamine Stereotypy; [6]) was less than 1 mg/kg. It also gave an ED50 (Amphetamine Stereotypy; [7]) of less than 0.32 mg/kg, an ED50 (Amphetamine Stereotypy; [8]) of less than 0.32 mg/kg and an ED50 (Amphetamine Stereotypy; [9]) of less than 0.32 mg/kg.

`Cl.OC(CCCN1CC[C@@H]2[C@@H](C1)c1cc(F)ccc1N2c1ccc(F)cc1)c1ccc(F)cc1` (single isomer, unassigned) [α, trans 8-fluoro-5-(p-fluorophenyl)-2-[4-hydroxy-4(p-fluorophenyl)butyl]-2,3,4,4a,5,9b-hexahydro-1H-pyrido[4,3-b]indole hydrochloride] was tested, and the “ED50, 5 Hrs.” value (Amphetamine Stereotypy; [10]) was 32-100 micrograms/kilograms, the “ED50, 24 Hrs.” value (Amphetamine Stereotypy; [10]) was 32-100 micrograms/kilograms and the “ED50, 48 Hrs.” value (Amphetamine Stereotypy; [11]) was “ca. 1 mg./kg”. The “ED50, 72 Hrs.” value (Amphetamine Stereotypy; [11]) was greater than 10 mg/kg.

`OC(CCCN1CC[C@H]2[C@H](C1)c1cc(F)ccc1N2c1ccc(F)cc1)c1ccc(F)cc1` (relative stereo) [drawing 37, dl-trans-8-Fluoro-5-(p-fluorophenyl)-2-[4-hydroxy-4-(p-fluorophenyl)butyl]-2,3,4,4a,5,9b-hexahydro-1H-pyrido[4,3-b]indole hydrochloride] was tested, and the ED50 (Amphetamine Stereotypy; [1]) was 0.032 to 0.1 mg/kg, the ED50 (Amphetamine Stereotypy; [2]) was 0.032 to 0.1 mg/kg and the ED50 (Amphetamine Stereotypy; [3]) was 0.032 to 0.1 mg/kg. It also gave an ED50 (Amphetamine Stereotypy; ip, 48 h, i.p., Part B, read-out: ED50, 48 Hrs.) of 0.1 to 0.32 mg/kg, an ED50 (Amphetamine Stereotypy; [4]) of 0.32 to 1 mg/kg and an ED50 (Amphetamine Stereotypy; [5]) of 0.1 to 0.32 mg/kg. It also gave an ED50 (Amphetamine Stereotypy; [6]) of 0.1 to 0.32 mg/kg, an ED50 (Amphetamine Stereotypy; [7]) of 0.032 to 0.1 mg/kg and an ED50 (Amphetamine Stereotypy; [8]) of 0.032 to 0.1 mg/kg. The ED50 (Amphetamine Stereotypy; [9]) was 0.032 to 0.1 mg/kg.

In the case of `OC(CCCN1CC[C@@H]2[C@@H](C1)c1cc(F)ccc1N2c1ccc(F)cc1)c1ccc(F)cc1` (single isomer, unassigned) [δ, trans 8-fluoro-5-(p-fluorophenyl)-2-[4-hydroxy-4(p-fluorophenyl)butyl]-2,3,4,4a,5,9b-hexahydro-1H-pyrido[4,3-b]indole hydrochloride], the “ED50, 1 Hr.” value (Amphetamine Stereotypy; [10]) is reported as greater than 1000 micrograms/kilograms, the “ED50, 1 Hr.” value (Amphetamine Stereotypy; [11]) is reported as greater than 10 mg/kg and the “ED50, 5 Hrs.” value (Amphetamine Stereotypy; [11]) is reported as 5.7 mg/kg. The “ED50, 24 Hrs.” value (Amphetamine Stereotypy; [10]) was 320-1000 micrograms/kilograms, the “ED50, 24 Hrs.” value (Amphetamine Stereotypy; [11]) was greater than 10 mg/kg and the “ED50, 48 Hrs.” value (Amphetamine Stereotypy; [11]) was greater than 10 mg/kg. For the same compound, the “ED50, 72 Hrs.” value (Amphetamine Stereotypy; [11]) was greater than 10 mg/kg and the IC50 (dopamine receptors) was 350 nM.

With `OC(CCCN1CC[C@H]2[C@H](C1)c1cc(F)ccc1N2c1ccc(F)cc1)c1ccccc1` (relative stereo) the ED50 (Amphetamine Stereotypy; [7]) was 0.1 to 0.32 mg/kg, the ED50 (Amphetamine Stereotypy; [8]) was 0.1 to 0.32 mg/kg and the ED50 (Amphetamine Stereotypy; [9]) was less than 0.32 mg/kg.

Compound `c1ccc(CCCN2CC[C@H]3[C@H](C2)c2ccccc2N3c2ccccc2)cc1` (relative stereo) [R = C6 H5 (CH2)3, reference compound] has an ED50 (Amphetamine Stereotypy; [7]) of 3.2 to 10 mg/kg, an ED50 (Amphetamine Stereotypy; [8]) of 3.2 to 10 mg/kg and an ED50 (Amphetamine Stereotypy; [9]) greater than 10 mg/kg.

`c1ccc(N2c3ccccc3[C@H]3CNCC[C@@H]32)cc1` (relative stereo) [R = H, dl-trans-5-Phenyl-2,3,4,4a,5,9b-hexahydro-1H-pyrido[4,3-b]indole, reference compound] gave an ED50 (Amphetamine Stereotypy; sc, 1 h, read-out: ED50, 1 Hr.) of 3.2 to 32 mg/kg, an ED50 (Amphetamine Stereotypy; sc, 5 h, read-out: ED50, 5 Hr.) greater than 3.2 mg/kg and an ED50 (Amphetamine Stereotypy; sc, 24 h, read-out: ED50, 24 Hrs.) greater than 32 mg/kg.

`OC(CCCN1CC[C@H]2[C@@H](C1)c1ccccc1N2c1ccccc1)c1ccc(F)cc1` (relative stereo) [corresponding 4a, 9bcis analog, reference compound] gave an ED50 (Amphetamine Stereotypy; [7]) of 56 mg/kg.

Compound `O=C(CCCN1CC[C@H]2[C@H](C1)c1cc(F)ccc1N2c1ccc(F)cc1)c1ccc(F)cc1` (relative stereo) has an ED50 (Amphetamine Stereotypy; [1]) of less than 1 mg/kg, an ED50 (Amphetamine Stereotypy; [2]) of less than 1 mg/kg and an ED50 (Amphetamine Stereotypy; [3]) of less than 1 mg/kg. The ED50 (Amphetamine Stereotypy; [7]) was less than 1 mg/kg, the ED50 (Amphetamine Stereotypy; [8]) was less than 1 mg/kg and the ED50 (Amphetamine Stereotypy; [9]) was less than 1 mg/kg.

Compound `O=C(CCCN1CCc2c(c3cc(F)ccc3n2-c2ccc(F)cc2)C1)c1ccc(F)cc1` [drawing 42 (a), reference compound] has an ED50 (Amphetamine Stereotypy; [1]) of 3.2 to 10 mg/kg and an ED50 (Amphetamine Stereotypy; [2]) greater than 10 mg/kg.
